“Also recorded” adds a separate entry of the source. Counter-ions that a name gives are not always drawn. Like-named read-outs stand apart in the source and are kept apart here.
Legend:
5-HT1A receptor [1] = target: T1, 5-HT1A receptor (Homo sapiens, UniProt P08908); conditions: in vitro; disclosed in U.S. Pat. No. 6,720,320; cited from earlier work
T1 sequence (P08908 1-422): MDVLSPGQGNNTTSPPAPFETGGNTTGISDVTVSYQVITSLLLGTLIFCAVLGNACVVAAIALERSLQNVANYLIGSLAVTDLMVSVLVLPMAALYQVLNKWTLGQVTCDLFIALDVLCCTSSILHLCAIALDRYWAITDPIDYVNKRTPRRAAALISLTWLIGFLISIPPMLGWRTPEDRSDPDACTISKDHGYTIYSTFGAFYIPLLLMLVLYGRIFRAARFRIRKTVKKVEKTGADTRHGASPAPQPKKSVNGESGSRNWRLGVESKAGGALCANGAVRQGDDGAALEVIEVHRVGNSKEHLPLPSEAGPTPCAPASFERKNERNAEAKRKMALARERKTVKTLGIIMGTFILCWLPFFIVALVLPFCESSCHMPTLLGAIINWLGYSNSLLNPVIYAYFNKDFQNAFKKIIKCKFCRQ

5-HT1A receptor [2] = target: T1, 5-HT1A receptor; conditions: from U.S. Pat. No. 6,720,320 / Minerva Form 10K, cited from earlier work
serotonin reuptake = serotonin reuptake (Homo sapiens, UniProt P31645); conditions: from U.S. Pat. No. 6,720,320 / Minerva Form 10K, cited from earlier work
serotonin reuptake, sequence (P31645 whole entry): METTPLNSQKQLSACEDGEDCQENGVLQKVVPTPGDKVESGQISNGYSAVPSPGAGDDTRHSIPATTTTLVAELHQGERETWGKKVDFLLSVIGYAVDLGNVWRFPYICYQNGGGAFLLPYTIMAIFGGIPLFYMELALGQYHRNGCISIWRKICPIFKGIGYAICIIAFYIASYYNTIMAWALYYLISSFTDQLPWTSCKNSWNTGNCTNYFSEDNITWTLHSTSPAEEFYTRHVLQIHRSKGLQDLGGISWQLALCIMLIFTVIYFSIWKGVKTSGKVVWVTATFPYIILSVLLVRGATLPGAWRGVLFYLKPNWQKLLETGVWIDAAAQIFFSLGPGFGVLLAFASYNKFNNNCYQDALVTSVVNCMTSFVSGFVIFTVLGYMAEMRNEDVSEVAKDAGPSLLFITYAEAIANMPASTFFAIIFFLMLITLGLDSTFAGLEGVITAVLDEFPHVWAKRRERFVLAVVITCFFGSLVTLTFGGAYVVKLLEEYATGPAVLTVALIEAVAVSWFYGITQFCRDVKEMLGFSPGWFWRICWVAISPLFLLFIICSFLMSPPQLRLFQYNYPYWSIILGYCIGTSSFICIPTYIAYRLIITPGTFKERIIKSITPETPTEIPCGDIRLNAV

adult subjects with MDD = test: Phase 2a randomized, double-blind, placebo- and active-controlled study; anxiety by HAM-A over 6 weeks; type: in vivo, human; conditions: for speed of onset of the reduction in total HAM-A score: 0.5 mg dose compared with the 2.5 mg dose and other arms, Week 1 vs. Week 2; for reduction in severity of anxiety symptoms compared to placebo (change from baseline in total HAM-A score): MDD patients, ITT, once daily oral 0.5 mg or 2.5 mg, 6 weeks of treatment
Description: In an embodiment, the effect of the treatment is measured using the Hamilton Anxiety Scale (HAM-A). The subject is asked to rate the gravity of each item using a 5-level scale—from 0 to 4, where 0 being not present and 4 being severe. The results are then collated and tabulated to determine the severity of anxiety: a HAM-A score of <17 is mild anxiety, HAM-A score of 18-24 is mild to moderate anxiety, and HAM-A score of 25-30 is moderate to severe anxiety.
A phase 2a, multicenter, multinational, randomized, double-blind, placebo- and active-controlled parallel-group study was conducted to investigate the efficacy and safety of MIN-117 in adult subjects with MDD. One of the exploratory objectives of the study was to assess effects of MIN-117 compared to placebo on anxiety as measured by change from baseline in the Hamilton Anxiety Rating Scale (HAM-A) over 6 weeks of treatment.
The study consisted of a 4-week pre-treatment phase during which subjects were washed out from antidepressant medications or other psychotropics, followed by a 6-week treatment phase, and then an end of study (EOS) follow-up visit at approximately 2-weeks after the end of the treatment phase. MIN-117 capsules of 0.5 mg and 2.5 mg strength were used in the study. The capsules were size 4 made of white hard gelatin containing the drug substance, lactose, cornstarch, low substituted hydroxypropylcelullose and hydroxypropylcelullose, and purified water.
Eighty-four eligible subjects (met the DSM-5 diagnostic criteria for moderate to severe MDD, without psychotic features) were randomized in a 1:1:1:1 ratio, to receive once daily oral doses of placebo, MIN-117 at 0.5 mg, MIN-117 at 2.5 mg, or paroxetine at 20 mg as an active comparator for 6 weeks. Paroxetine is an antidepressant of the SSRI class and is used to treat MDD, OCD, PTSD, social anxiety disorder, panic disorder, GAD, premenstrual dysphoric disorder and menopausal hot flashes. The HAM-A scale was used to measure the severity of each subject's anxiety at screening, baseline, and weeks 1, 2, 4, 6 (or early withdrawal) and EOS.
Subjects had to meet all of the following inclusion criteria to be eligible for participation in this study: • 1. Subjects must be able to read and understand the consent forms, complete study-related procedures, and communicate with the study staff. • 2. Subjects must have provided written consent to participate in the study and understand that they are free to withdraw from the study at any time. • 3. Male or female subjects must be 18 to 65 years of age, inclusive, at Screening (Visit 1). • 4. Subjects have a body mass index (BMI) of ≥18 to ≤35 kg/m^2 [BMI=weight (kg)/height (m^2)] at Screening (Visit 1) • 5. Subjects must meet Diagnostic and Statistical Manual of Mental Disorders—Fifth Edition (DSM-5) criteria for diagnosis of moderate or severe depression without psychotic features (ICD-9 codes 296.32 & 296.33; ICD-10 codes F33.1 & F33.2, respectively) at Screening based on clinical assessment and on the MINI, v7.0. • 6. Subjects have a history of at least one previous episode of depression prior to the current episode. • 7. Current major depressive episode of at least 8 weeks in duration. • 8. Subjects must have a score of ≥30 on the investigator-rated MADRS at Screening (Visit 1) and Baseline (Visit 2a). • 9. Subjects must have a score of ≥4 on the investigator-rated CGI-S at Screening (Visit 1) and Baseline (Visit 2a). • 10. Subjects must be in good general health prior to study participation with no clinically relevant abnormalities as assessed by the investigator and determined by medical history, physical examination, blood chemistry, hematology, urinalysis, and electrocardiogram (ECG). • 11. […] Male subjects who are willing to use condom for the duration of the study and until 90 days after the last dose of the study, even if they have had vasectomy, and must inform their partners about taking an investigational medication. […]

5-HT2A receptors = 5-HT2A receptors (Homo sapiens, UniProt P28223); conditions: Minerva Form 10K, 14 Mar. 2016; cited from earlier work
5-HT2A receptors, sequence (P28223 whole entry): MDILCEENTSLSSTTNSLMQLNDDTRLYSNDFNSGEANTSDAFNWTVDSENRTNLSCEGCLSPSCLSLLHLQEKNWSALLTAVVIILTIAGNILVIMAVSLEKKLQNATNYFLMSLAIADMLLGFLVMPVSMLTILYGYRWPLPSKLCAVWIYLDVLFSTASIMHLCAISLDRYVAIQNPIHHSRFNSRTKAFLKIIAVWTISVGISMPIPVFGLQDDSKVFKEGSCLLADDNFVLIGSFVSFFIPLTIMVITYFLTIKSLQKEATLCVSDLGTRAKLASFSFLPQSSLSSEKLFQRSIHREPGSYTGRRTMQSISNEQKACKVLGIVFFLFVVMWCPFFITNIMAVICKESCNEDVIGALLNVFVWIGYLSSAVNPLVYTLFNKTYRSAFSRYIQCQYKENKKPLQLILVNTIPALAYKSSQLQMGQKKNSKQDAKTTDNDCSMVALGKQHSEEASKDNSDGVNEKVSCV

dopamine reuptake = dopamine reuptake (Homo sapiens, UniProt Q01959); conditions: Minerva Form 10K, 14 Mar. 2016; cited from earlier work
dopamine reuptake, sequence (Q01959 whole entry): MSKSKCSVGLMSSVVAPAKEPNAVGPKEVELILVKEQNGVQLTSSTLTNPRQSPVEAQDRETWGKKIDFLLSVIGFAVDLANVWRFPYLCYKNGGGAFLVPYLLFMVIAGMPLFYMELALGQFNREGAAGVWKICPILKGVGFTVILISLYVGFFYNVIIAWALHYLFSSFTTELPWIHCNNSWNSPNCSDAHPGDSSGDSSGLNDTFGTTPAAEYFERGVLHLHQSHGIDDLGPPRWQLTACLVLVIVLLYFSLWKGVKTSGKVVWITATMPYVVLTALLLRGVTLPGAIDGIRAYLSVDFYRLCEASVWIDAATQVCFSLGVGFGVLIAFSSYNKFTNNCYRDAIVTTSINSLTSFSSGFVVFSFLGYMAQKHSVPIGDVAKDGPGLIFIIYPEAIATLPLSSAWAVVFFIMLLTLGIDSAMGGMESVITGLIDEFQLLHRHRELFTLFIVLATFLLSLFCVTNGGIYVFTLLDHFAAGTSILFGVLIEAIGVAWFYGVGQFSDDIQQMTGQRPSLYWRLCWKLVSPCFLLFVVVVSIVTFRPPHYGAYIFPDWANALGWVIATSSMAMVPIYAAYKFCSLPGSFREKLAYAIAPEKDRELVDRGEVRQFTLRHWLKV

α1A-adrenergic receptor = target: T2, α1A-adrenergic receptor (Homo sapiens, UniProt P35348); conditions: Minerva Form 10K, 14 Mar. 2016; cited from earlier work
T2 sequence (P35348 1-466): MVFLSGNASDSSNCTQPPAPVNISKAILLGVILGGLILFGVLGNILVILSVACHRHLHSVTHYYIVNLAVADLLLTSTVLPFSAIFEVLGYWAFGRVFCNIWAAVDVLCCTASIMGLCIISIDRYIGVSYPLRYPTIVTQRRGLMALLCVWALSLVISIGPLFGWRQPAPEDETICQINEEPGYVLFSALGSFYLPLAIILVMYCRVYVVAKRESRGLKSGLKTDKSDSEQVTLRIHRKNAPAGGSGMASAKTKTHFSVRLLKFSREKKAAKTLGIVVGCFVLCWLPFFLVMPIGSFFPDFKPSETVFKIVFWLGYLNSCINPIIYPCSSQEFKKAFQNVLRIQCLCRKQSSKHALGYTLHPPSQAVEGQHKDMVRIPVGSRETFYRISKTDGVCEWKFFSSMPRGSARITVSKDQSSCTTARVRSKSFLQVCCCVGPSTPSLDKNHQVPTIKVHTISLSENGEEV

α1B-adrenergic receptor = target: T3, α1B-adrenergic receptor (Homo sapiens, UniProt P35368); conditions: Minerva Form 10K, 14 Mar. 2016; cited from earlier work
T3 sequence (P35368 1-520): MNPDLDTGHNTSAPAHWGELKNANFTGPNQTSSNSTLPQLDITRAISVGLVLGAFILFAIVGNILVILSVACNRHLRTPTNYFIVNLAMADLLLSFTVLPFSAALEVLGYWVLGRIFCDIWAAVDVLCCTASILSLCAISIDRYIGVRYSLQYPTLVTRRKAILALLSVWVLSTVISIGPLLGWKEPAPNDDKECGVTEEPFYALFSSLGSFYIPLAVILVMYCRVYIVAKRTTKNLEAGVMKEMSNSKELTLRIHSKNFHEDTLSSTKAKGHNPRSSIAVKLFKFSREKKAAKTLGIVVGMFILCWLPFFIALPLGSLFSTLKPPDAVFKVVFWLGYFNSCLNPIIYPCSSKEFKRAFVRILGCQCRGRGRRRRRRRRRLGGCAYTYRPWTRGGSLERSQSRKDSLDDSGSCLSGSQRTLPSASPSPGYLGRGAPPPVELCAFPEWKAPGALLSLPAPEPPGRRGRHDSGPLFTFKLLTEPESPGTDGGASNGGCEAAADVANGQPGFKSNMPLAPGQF

Structure (SMILES)	affinity for the 5-HT1A receptor (5-HT1A receptor [1])	activity at the 5-HT1A receptor (5-HT1A receptor [2])	activity on serotonin (5-HT) reuptake (serotonin reuptake)	speed of onset of the reduction in total HAM-A score (adult subjects with MDD; monohydrochloride)	time after starting therapy to a beneficial result over placebo (adult subjects with MDD; 0.5 mg total daily dose) [weeks]	reduction in severity of anxiety symptoms compared to placebo (change from baseline in total HAM-A score) (adult subjects with MDD; monohydrochloride)	tolerability (adult subjects with MDD; both doses (0.5 mg and 2.5 mg once daily, 6 weeks))	ability of both doses to reduce severity of symptoms, 0.5 mg vs 2.5 mg (adult subjects with MDD; by Week 6)	activity at the 5-HT1A receptor (5-HT1A receptor [2]; monohydrochloride)	activity at the 5-HT2A receptor (5-HT2A receptors)	activity on serotonin (5-HT) reuptake (serotonin reuptake; monohydrochloride)	activity on dopamine reuptake (dopamine reuptake)	affinity for the α1A-adrenergic receptor (α1A-adrenergic receptor)	affinity for the α1B-adrenergic receptor (α1B-adrenergic receptor)	speed of onset of the reduction in total HAM-A score (adult subjects with MDD)	reduction in severity of anxiety symptoms compared to placebo (change from baseline in total HAM-A score) (adult subjects with MDD)
OCc1nnc(-c2cc3c(OC[C@@H](O)CN4CCC(c5ccc(Cl)c(Cl)c5)CC4)cccc3o2)o1 [Compound II, (2S)-1-[4-(3,4-dichlorophenyl)piperidin-1-yl]-3-[2-(5-hydroxymethyl-1,3,4-oxadiazol-2-yl)benzo[b]furan-4-yloxy]propan-2-ol]	selective affinity	antagonistic activity	5-HT reuptake inhibitory activity													
Cc1nnc(-c2cc3c(OC[C@@H](O)CN4CCC(c5ccc(Cl)c(Cl)c5)CC4)cccc3o2)o1 [MIN-117, (2S)-1-[4-(3,4-dichlorophenyl)piperidin-1-yl]-3-[2-(5-methyl-1,3,4-oxadiazol-2-yl)benzo[b]furan-4-yloxy]propan-2-ol monohydrochloride]				fastest onset	2	reduces anxiety symptoms; also recorded: capable of reducing the severity of one or more anxiety symptoms	well tolerated	comparable	antagonist	antagonist	antagonist	antagonist	having affinity	having affinity		
Cc1nnc(-c2cc3c(OC[C@@H](O)CN4CCC(c5ccc(Cl)c(Cl)c5)CC4)cccc3o2)o1 [Compound I, (2S)-1-[4-(3,4-dichlorophenyl)piperidin-1-yl]-3-[2-(5-methyl-1,3,4-oxadiazol-2-yl)benzo[b]furan-4-yloxy]propan-2-ol]	selective affinity	antagonistic activity	5-HT reuptake inhibitory activity												more rapid reduction	reduced anxiety symptoms compared to placebo; also recorded: capable of reducing the severity of one or more anxiety symptoms

From patent US20250228837A1, “(2S)-1-[4-(3,4-DICHLOROPHENYL)PIPERIDIN-1-YL]-3-[2-(5-METHYL-1,3,4-OXADIAZOL-2-YL)BENZO[B]FURAN-4-YLOXY] PROPAN-2-OL OR ITS METABOLITE FOR TREATING ANXIETY DISORDERS” (Minerva Neurosciences, Inc., priority 2016, published 2025)
